Data from patent US20260256786A1 (United Therapeutics Corporation, priority 2020, published 2026).
Where two headings read alike, the source gives them in different places.

Legend:
[1] = ImaT 4 mg/kg insufflation, 24 h time point
Description: After dosing, blood samples and lungs were collected at specific time points over a period of 24 hours.
The rats were anesthetized with a mixture of 1.5 to 3% isoflurane USP (Abbott Laboratories, Montreal Canada) in 100% oxygen, and placed on a homoeothermic heating pad to maintain body temperature at 37±1° C.
For all groups, the test article was insufflated using an automated insufflation device. The insufflator tip was inserted just above the bifurcation of the trachea and the discharge of powder was timed to the inhalation cycle of the animal. After dosing, the animals were allowed to recover from anesthesia under surveillance before being returned to their respective cages.
Blood samples of 0.5 mL were collected from the jugular vein at specified time points (see Table 4).
Blood samples were centrifuged (3000 r.p.m. for 10 min., 2-8° C.) and plasma was transferred into an Eppendorf tube labeled with the Study Number, animal I.D., dose group and time point.
For each group, data in this report is expressed as mean±S.E.M.

[2] = Pharmacokinetics of insufflated ImaT powder in rat: lung sections; format: in vivo, Sprague Dawley rats; conditions: for concentration at 0.08 h / concentration at 1 h / concentration at 4 h / concentration at 8 h: male, Sprague Dawley, rat, lung, inhaled, 4 mg/kg
Description: Lungs were also harvested at specified time points (see Table 4). […] Lungs werethen harvested. The left lobe was sectioned into three parts; upper, middle and bottom. Each section was separated into two equal pieces. Each piece was weighed and individually placed in a properly labeled tube. Lungs samples were snap-frozen and stored at −80° C. Lung samples were then homogenized in PBS, 0.1% Triton X-100 (200 mg of tissue/mL). The homogenate samples were stored at −80° C.

[3] = section 1 (homogenate), read-out: Lung conc, Section 1
[4] = section 2 (homogenate), read-out: Lung conc, Section 2
[5] = section 3 (homogenate), read-out: Lung conc, Section 3
[6] = section 4 (homogenate), read-out: Lung conc, Section 4
[7] = section 5 (homogenate), read-out: Lung conc, Section 5
[8] = section 6 (homogenate), read-out: Lung conc, Section 6

For `Cc1ccc(NC(=O)c2ccc(CN3CCN(C)CC3)cc2)cc1Nc1nccc(-c2cccnc2)n1` [Imatinib, 4-[(4-methylpiperazin-1-yl)methyl]-N-[4-methyl-3-[(4-pyridin-3-ylpyrimidin-2-yl)amino]phenyl]benzamide], the “Plasma concentration of Imatinib” value [1] was “below the limit of detection”, the “Imatinib concentrations in the lung” value ([2]; ImaT 4 mg/kg insufflation, 24 hour time point) was “below the limit of detection” and the concentration at 0.08 h [2, 3] was 201 ng/mL. For the same compound, the concentration at 1 h [2, 3] was 260 ng/mL, the concentration at 4 h [2, 3] was 62 ng/mL and the concentration at 8 h [2, 3] was 27.2 ng/mL. The concentration at 0.08 h [2, 4] was 1530 ng/mL, the concentration at 1 h [2, 4] was 638 ng/mL and the concentration at 4 h [2, 4] was 51 ng/mL. It also gave a concentration at 8 h [2, 4] of 24.4 ng/mL, a concentration at 0.08 h [2, 5] of 888 ng/mL and a concentration at 1 h [2, 5] of 307 ng/mL. For the same compound, the concentration at 4 h [2, 5] was 55.9 ng/mL, the concentration at 8 h [2, 5] was 21.1 ng/mL and the concentration at 0.08 h [2, 6] was 3000 ng/mL. It also gave a concentration at 1 h [2, 6] of 510 ng/mL, a concentration at 4 h [2, 6] of 68.4 ng/mL and a concentration at 8 h [2, 6] of 24.6 ng/mL. The concentration at 0.08 h [2, 7] was 2580 ng/mL, the concentration at 1 h [2, 7] was 196 ng/mL and the concentration at 4 h [2, 7] was 69.5 ng/mL. The concentration at 8 h [2, 7] was 22.1 ng/mL, the concentration at 0.08 h [2, 8] was 4740 ng/mL and the concentration at 1 h [2, 8] was 314 ng/mL. The concentration at 4 h [2, 8] was 66.3 ng/mL, the concentration at 8 h [2, 8] was 24.6 ng/mL and the “Time of maximal lung concentration of Imatinib” value ([2]; post-inhalation of ImaT) was 5 min.
